{"source": "ChEMBL document CHEMBL1221228", "about": "“Norselic acids A-E, highly oxidized anti-infective steroids that deter mesograzer predation, from the Antarctic sponge Crella sp” (2009)", "type_in_all_cases": "functional", "key": {"[1]": {"tested_on": "Escherichia coli", "assay": "Antimicrobial activity against Escherichia coli 389 at 5 ug after 18 hrs by agar diffusion method", "conditions": "Escherichia coli, 389, 18 h; read-out: IZ"}, "[2]": {"tested_on": "Candida albicans", "assay": "Antimicrobial activity against Candida albicans 54 at 5 ug after 18 hrs by agar diffusion method", "conditions": "Candida albicans, 54, 18 h; read-out: IZ"}, "[3]": {"tested_on": "Escherichia coli", "assay": "Antimicrobial activity against Escherichia coli 442 at 5 ug after 18 hrs by agar diffusion method", "conditions": "Escherichia coli, 442, 18 h; read-out: IZ"}, "[4]": {"tested_on": "Leishmania", "assay": "Antileishmanial activity against Leishmania"}, "[5]": {"tested_on": "Staphylococcus aureus", "assay": "Antimicrobial activity against methicillin-resistant Staphylococcus aureus 310 assessed as hazy zone of inhibition at 200 ug after 18 hrs by agar diffusion method", "conditions": "Staphylococcus aureus, 310, 18 h; read-out: IZ"}, "[6]": {"tested_on": "Enterococcus faecium", "assay": "Antimicrobial activity against vancomycin-resistant Enterococcus faecium 379 assessed as hazy zone of inhibition at 200 ug after 18 hrs by agar diffusion method", "conditions": "Enterococcus faecium, 379, 18 h; read-out: IZ"}, "[7]": {"tested_on": "Candida albicans", "assay": "Antimicrobial activity against Candida albicans 54 at 200 ug after 18 hrs by agar diffusion method", "conditions": "Candida albicans, 54, 18 h; read-out: IZ"}, "[8]": {"tested_on": "Escherichia coli", "assay": "Antimicrobial activity against Escherichia coli 389 at 200 ug after 18 hrs by agar diffusion method", "conditions": "Escherichia coli, 389, 18 h; read-out: IZ"}, "[9]": {"tested_on": "Odontaster validus", "assay": "Reduction of food intake in Odontaster validus assessed as rejection of food pellets after 72 hrs relative to control", "parameters": "scale not given: the % may be the effect or the level left"}, "[10]": {"tested_on": "Staphylococcus aureus", "assay": "Antimicrobial activity against methicillin sensitive Staphylococcus aureus 375 assessed as very hazy zone of inhibition at 200 ug after 18 hrs by agar diffusion method", "conditions": "Staphylococcus aureus, 375, 18 h; read-out: IZ"}, "[11]": {"tested_on": "Escherichia coli", "assay": "Antimicrobial activity against Escherichia coli 442 at 200 ug after 18 hrs by agar diffusion method", "conditions": "Escherichia coli, 442, 18 h; read-out: IZ"}, "[12]": {"tested_on": "Staphylococcus aureus", "assay": "Antimicrobial activity against methicillin sensitive Staphylococcus aureus 375 at 1 unit after 18 hrs by agar diffusion method"}, "[13]": {"tested_on": "Enterococcus faecium", "assay": "Antimicrobial activity against vancomycin-resistant Enterococcus faecium 379 at 1 unit after 18 hrs by agar diffusion method"}, "[14]": {"tested_on": "Candida albicans", "assay": "Antimicrobial activity against Candida albicans 54 at 1 unit after 18 hrs by agar diffusion method"}, "[15]": {"tested_on": "Escherichia coli", "assay": "Antimicrobial activity against Escherichia coli 389 assessed as hazy zone of inhibition at 30 ug after 18 hrs by agar diffusion method", "conditions": "Escherichia coli, 389, 18 h; read-out: IZ"}, "[16]": {"tested_on": "Escherichia coli", "assay": "Antimicrobial activity against Escherichia coli 442 at 1 unit after 18 hrs by agar diffusion method"}, "[17]": {"tested_on": "Staphylococcus aureus", "assay": "Antimicrobial activity against methicillin sensitive Staphylococcus aureus 375 assessed as hazy zone of inhibition at 1 unit after 18 hrs by agar diffusion method"}, "[18]": {"tested_on": "Staphylococcus aureus", "assay": "Antimicrobial activity against methicillin sensitive Staphylococcus aureus 310 at 1 unit after 18 hrs by agar diffusion method"}, "[19]": {"tested_on": "Candida albicans", "assay": "Antimicrobial activity against Candida albicans 54 at 30 ug after 18 hrs by agar diffusion method", "conditions": "Candida albicans, 54, 18 h; read-out: IZ"}, "[20]": {"tested_on": "Escherichia coli", "assay": "Antimicrobial activity against Escherichia coli 389 at 30 ug after 18 hrs by agar diffusion method", "conditions": "Escherichia coli, 389, 18 h; read-out: IZ"}, "[21]": {"tested_on": "Escherichia coli", "assay": "Antimicrobial activity against Escherichia coli 442 at 30 ug after 18 hrs by agar diffusion method", "conditions": "Escherichia coli, 442, 18 h; read-out: IZ"}, "[22]": {"tested_on": "Escherichia coli", "assay": "Antimicrobial activity against Escherichia coli 442 assessed as hazy zone of inhibition at 30 ug after 18 hrs by agar diffusion method", "conditions": "Escherichia coli, 442, 18 h; read-out: IZ"}, "[23]": {"tested_on": "Staphylococcus aureus", "assay": "Antimicrobial activity against methicillin sensitive Staphylococcus aureus 375 at 30 ug after 18 hrs by agar diffusion method", "conditions": "Staphylococcus aureus, 375, 18 h; read-out: IZ"}, "[24]": {"tested_on": "Staphylococcus aureus", "assay": "Antimicrobial activity against methicillin sensitive Staphylococcus aureus 310 at 30 ug after 18 hrs by agar diffusion method", "conditions": "Staphylococcus aureus, 310, 18 h; read-out: IZ"}, "[25]": {"tested_on": "Enterococcus faecium", "assay": "Antimicrobial activity against vancomycin-resistant Enterococcus faecium 379 at 30 ug after 18 hrs by agar diffusion method", "conditions": "Enterococcus faecium, 379, 18 h; read-out: IZ"}}}
{"smiles": "CO[C@H]1/C=C/O[C@@]2(C)Oc3c(C)c(O)c4c(O)c(c(/C=N/N5CCN(C)CC5)c(O)c4c3C2=O)NC(=O)/C(C)=C\\C=C\\[C@H](C)[C@H](O)[C@@H](C)[C@@H](O)[C@@H](C)[C@H](OC(C)=O)[C@@H]1C", "note": "[RIFAMPIN]", "values": [{"measurement": "zone of inhibition at 5 µg/disc", "setting": "[1]", "result": 20, "unit": "mm"}, {"measurement": "zone of inhibition at 5 µg/disc", "setting": "[2]", "result": 0, "unit": "mm"}, {"measurement": "zone of inhibition at 5 µg/disc", "setting": "[3]", "result": 6, "unit": "mm"}]}
{"smiles": "C=C(C)[C@@](O)(CC)CC[C@@H](C)[C@H]1CC[C@H]2[C@@H]3CC[C@H]4CC(=O)C=C[C@]4(C)[C@H]3CC[C@]12C(=O)O", "note": "[NORSELIC ACID B]", "values": [{"measurement": "Activity", "setting": "[4]", "result": 2.4, "unit": "µM"}]}
{"smiles": "C=C(C)[C@@](O)(CC)CC[C@@H](C)[C@H]1CC[C@H]2[C@@H]3C=CC4=CC(=O)C=C[C@]4(C)[C@H]3CC[C@]12C(=O)O", "note": "[NORSELIC ACID A]", "values": [{"measurement": "zone of inhibition at 200 µg/disc", "setting": "[5]", "result": 9, "unit": "mm"}, {"measurement": "zone of inhibition at 200 µg/disc", "setting": "[6]", "result": 8, "unit": "mm"}, {"measurement": "zone of inhibition at 200 µg/disc", "setting": "[7]", "result": 8, "unit": "mm"}, {"measurement": "Activity", "setting": "[4]", "result": 2.5, "unit": "µM"}, {"measurement": "zone of inhibition at 200 µg/disc", "setting": "[8]", "result": 0, "unit": "mm"}, {"measurement": "Activity", "setting": "[9]", "result": 35, "unit": "%"}, {"measurement": "zone of inhibition at 200 µg/disc", "setting": "[10]", "result": 8, "unit": "mm"}, {"measurement": "zone of inhibition at 200 µg/disc", "setting": "[11]", "result": 0, "unit": "mm"}]}
{"smiles": "Cc1onc(-c2ccccc2)c1C(=O)N[C@@H]1C(=O)N2[C@@H]1SC(C)(C)[C@@H]2C(=O)O", "note": "[OXACILLIN]", "values": [{"measurement": "inhibition zone (IZ)", "setting": "[12]", "result": 18, "unit": "mm"}, {"measurement": "inhibition zone (IZ)", "setting": "[13]", "result": 0, "unit": "mm"}, {"measurement": "inhibition zone (IZ)", "setting": "[14]", "result": 0, "unit": "mm"}, {"measurement": "zone of inhibition at 30 µg/disc", "setting": "[15]", "result": 8, "unit": "mm"}, {"measurement": "inhibition zone (IZ)", "setting": "[16]", "result": 0, "unit": "mm"}, {"measurement": "inhibition zone (IZ)", "setting": "[17]", "result": 22, "unit": "mm"}, {"measurement": "inhibition zone (IZ)", "setting": "[18]", "result": 0, "unit": "mm"}]}
{"smiles": "CO[C@@]1(NC(=O)Cc2cccs2)C(=O)N2C(C(=O)O)=C(COC(N)=O)CS[C@@H]21", "note": "[CEFOXITIN]", "values": [{"measurement": "zone of inhibition at 30 µg/disc", "setting": "[19]", "result": 0, "unit": "mm"}, {"measurement": "zone of inhibition at 30 µg/disc", "setting": "[20]", "result": 22, "unit": "mm"}, {"measurement": "zone of inhibition at 30 µg/disc", "setting": "[21]", "result": 18, "unit": "mm"}, {"measurement": "zone of inhibition at 30 µg/disc", "setting": "[15]", "result": 26, "unit": "mm"}, {"measurement": "zone of inhibition at 30 µg/disc", "setting": "[22]", "result": 26, "unit": "mm"}]}
{"smiles": "CN[C@H](CC(C)C)C(=O)N[C@H]1C(=O)N[C@@H](CC(N)=O)C(=O)N[C@H]2C(=O)N[C@H]3C(=O)N[C@H](C(=O)N[C@H](C(=O)O)c4cc(O)cc(O)c4-c4cc3ccc4O)[C@H](O)c3ccc(c(Cl)c3)Oc3cc2cc(c3O[C@@H]2O[C@H](CO)[C@@H](O)[C@H](O)[C@H]2O[C@H]2C[C@](C)(N)[C@H](O)[C@H](C)O2)Oc2ccc(cc2Cl)[C@H]1O", "note": "[VANCOMYCIN]", "values": [{"measurement": "zone of inhibition at 30 µg/disc", "setting": "[23]", "result": 19, "unit": "mm"}, {"measurement": "zone of inhibition at 30 µg/disc", "setting": "[19]", "result": 0, "unit": "mm"}, {"measurement": "zone of inhibition at 30 µg/disc", "setting": "[20]", "result": 17, "unit": "mm"}, {"measurement": "zone of inhibition at 30 µg/disc", "setting": "[15]", "result": 25, "unit": "mm"}, {"measurement": "zone of inhibition at 30 µg/disc", "setting": "[24]", "result": 15, "unit": "mm"}, {"measurement": "zone of inhibition at 30 µg/disc", "setting": "[25]", "result": 0, "unit": "mm"}]}
{"smiles": "C=C(CC[C@@H](C)[C@H]1CC[C@H]2[C@@H]3CCC4=CC(=O)C=C[C@]4(C)[C@H]3CC[C@]12C(=O)O)C(C)C", "note": "[NORSELIC ACI C]", "values": [{"measurement": "Activity", "setting": "[4]", "result": 2.6, "unit": "µM"}]}
{"smiles": "C=C(C)[C@@](CC)(CC[C@@H](C)[C@H]1CC[C@H]2[C@@H]3C=CC4=CC(=O)C=C[C@]4(C)[C@H]3CC[C@]12C(=O)O)OC(C)=O", "note": "[NORSELIC ACID E]", "values": [{"measurement": "Activity", "setting": "[4]", "result": 3.6, "unit": "µM"}]}
{"smiles": "NC[C@H]1O[C@H](O[C@H]2[C@H](O)[C@@H](O[C@H]3O[C@H](CO)[C@@H](O)[C@H](N)[C@H]3O)[C@H](N)C[C@@H]2N)[C@H](O)[C@@H](O)[C@@H]1O", "note": "[KANAMYCIN]", "values": [{"measurement": "zone of inhibition at 30 µg/disc", "setting": "[23]", "result": 15, "unit": "mm"}, {"measurement": "zone of inhibition at 30 µg/disc", "setting": "[19]", "result": 0, "unit": "mm"}, {"measurement": "zone of inhibition at 30 µg/disc", "setting": "[20]", "result": 21, "unit": "mm"}, {"measurement": "zone of inhibition at 30 µg/disc", "setting": "[15]", "result": 37, "unit": "mm"}, {"measurement": "zone of inhibition at 30 µg/disc", "setting": "[24]", "result": 0, "unit": "mm"}, {"measurement": "zone of inhibition at 30 µg/disc", "setting": "[25]", "result": 10, "unit": "mm"}]}
{"smiles": "C=C(C)[C@@](O)(CC)CC[C@@H](C)[C@H]1CC[C@H]2[C@@H]3CCC4=CC(=O)CC[C@]4(C)[C@H]3CC[C@]12C(=O)O", "note": "[NORSELIC ACID D]", "values": [{"measurement": "Activity", "setting": "[4]", "result": 2, "unit": "µM"}]}
